Measured values: paper PMC11823594, “Durlobactam in combination with β-lactams to combat Mycobacterium abscessus” (Antimicrobial Agents and Chemotherapy, 2024)
pKi: −log10 of the molar value. In brackets after ≈: the same amount, converted by molar mass. Like-named read-outs stand apart in the source and are kept apart here.

Legend:
[1] = Predicted average unbound steady-state plasma concentration (fCss,avg) at clinically relevant doses; parameters: species or system human; conditions: median unbound average steady-state plasma concentration, continuous infusion; daily dose DUR 4,000, AVI 1,500, IPM 4,000, CFT 1,800, AMX 1,500, SULO 1,000, CXM 1,500, SUL 4,000, TBP 1,800 mg
PBP B = PBP B (Mycobacterium abscessus, UniProt B1MP31); assay: Steady-state kinetics with nitrocefin (Ki,app); assay type: biochemical; conditions: for Ratio of fCss,avg to Ki,app, PBP B: in parentheses in Table 3; for Ki: read-out: Ki,app PBP B (converted);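 for Ratio of fCss,avg to Ki,app, PBP B: Parenthesised value is the fCss,avg to Ki,app ratio where above 1 means target likely hit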
Method: (§1) Steady-state kinetic studies were conducted using purified LDTs and PBPs (LDT1-5, PBP B, PBP-lipo, and DDC) as previously described ([20]). The assays were performed using a BioTek Synergy2 multimode reader in conjunction with Gen5 analysis software. […] To determine reaction velocities, a 0.25 cm path length was employed. The steady-state kinetic parameters (Vmax, kcat, and Km) were obtained by fitting the data to the Henri-Michaelis-Menten equation using a nonlinear least-squares fit in Origin 8.1 software (OriginLab, Northampton, MA). The reaction rate (v) at a given substrate concentration ([S]) was calculated according to the following equations: […]
(§2) Changes in absorbance at 482 nm were measured over a period of 0–30 min for each concentration of β-lactams and BLIs. Data were linearized using a Dixon plot, plotting the inverse changes in absorbance (1/ΔA) against the concentrations of β-lactams and BLIs. The observed Ki,app was determined directly from the Dixon plot, and these values were corrected for substrate concentration and affinity for the LDT using the following equation:
(§3) Ki,app=observed Ki,app/1+[NCF]/Km NCF

DDC = DDC (Mycobacteroides abscessus, UniProt B1MDJ1); assay: Steady-state kinetics with nitrocefin (Ki,app); assay type: biochemical; conditions: in parentheses in Table 3;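 note: Parenthesised value is the fCss,avg to Ki,app ratio where above 1 means target likely hit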
Method: as §1, §2, §3

Mab ATCC 19977 strain = assay: MIC testing (CLSI, Middlebrook 7H9 broth); assay type: cell-based, Mycobacterium abscessus; conditions: for MIC: Mycobacteroides abscessus, ATCC19977, Mab ATCC 19977, no BLI added, 30°C, 48 h, read-out: MIC, alone; for MIC, + DUR + SUL (1:1): durlobactam, sulbactam and test β-lactam all at the same concentration; for MIC, + AVI (4 mg/L): fixed avibactam 4 mg/L; for MIC, + DUR + SUL (1 mg/L): fixed durlobactam 1 mg/L + sulbactam 1 mg/L
PBP-lipo [2] = molecular target: T1, PBP-lipo (Mycobacteroides abscessus, UniProt B1MDC3); assay: Bocillin-FL binding assay; conditions: 2 h incubation, 1:10 molar ratio
T1 construct: made in house; host or cells: Escherichia coli BL21 (DE3)
Method: To analyze the binding of PBP-lipo with β-lactams or BLIs, purified PBP-lipo (4 µg) was incubated with β-lactams or BLIs at a 1:10 molar ratio in a buffer containing 10 mM sodium phosphate (pH 7.4) and 150 mM NaCl. The incubation was carried out for 2 h at room temperature. After the initial incubation, 1 µM Bocillin FL was added to the reaction mixture. The incubation was continued for an additional 3–4 h at 37°C. After incubation, the samples were boiled to denature the proteins. The samples were then subjected to SDS-PAGE. The PBP-lipo:Bocillin complexes were visualized by fluorescence analysis at a wavelength of 488 nm using an Azure 300 gel imaging system. The intensity of the PBP-lipo:Bocillin complex bands was analyzed using GelAnalyzer software. The intensity of the band for PBP-lipo alone (without β-lactams) was set to 1 as the highest intensity. The intensity of each band for PBP-lipo incubated with β-lactams was then normalized by dividing by the intensity of the band for PBP-lipo alone.

PBP-lipo [3] = molecular target: T1, PBP-lipo; assay: Steady-state kinetics with nitrocefin (Ki,app); assay type: biochemical; conditions: for Ratio of fCss,avg to Ki,app, PBP-lipo: in parentheses in Table 3; for Ki: nitrocefin at 5 × Km, read-out: Ki,app PBP-lipo (converted)
Method: Steady-state kinetic studies were conducted using purified LDTs and PBPs (LDT1-5, PBP B, PBP-lipo, and DDC) as previously described ([20]). The assays were performed using a BioTek Synergy2 multimode reader in conjunction with Gen5 analysis software. Increasing concentrations of NCF (Δε482 = 17,400 M^⁻¹ cm^⁻¹) were used, while fixed concentrations of the LDTs and PBPs were monitored for changes in absorbance at 482 nm over a time period of 0 to 10 min. To determine reaction velocities, a 0.25 cm path length was employed. The steady-state kinetic parameters (Vmax, kcat, and Km) were obtained by fitting the data to the Henri-Michaelis-Menten equation using a nonlinear least-squares fit in Origin 8.1 software (OriginLab, Northampton, MA). The reaction rate (v) at a given substrate concentration ([S]) was calculated according to the following equations: […]
as §2, with “To determine the apparent inhibition constants (Ki,app) for β-lactams and BLIs, the following experimental condition was employed: NCF as a substrate at a concentration of 5 × Km, LDT/ PBP enzymes with fixed concentration, and β-lactams and BLIs with various concentrations. Changes” for “Changes”
as §3

[4] = tested on: Mycobacterium abscessus ATCC 19977 strain; assay: Morphological changes by flow cytometry and confocal microscopy; assay type: cell-based; conditions: clinically relevant unbound concentrations (fCss,ave), 24 h
Method: Flow cytometry was employed to evaluate morphological changes in individual bacterial cells following PBP-lipo inactivation after 24 h of β-lactam treatment. The bacterial cells were stained using the BacLight kit L7012 (Thermo Fisher Scientific, Waltham, MA), containing SYTO 9 and propidium iodide (PI). Analysis was performed using a CytoFLEX flow cytometer (Beckman Coulter, CA), with data processed using CytExpert software.
Bacterial morphological changes resulting from PBP-lipo inactivation were investigated using an ImageXpress Micro Confocal Microscope (Molecular Devices, CA). The staining procedures applied to the samples mirrored those used for flow cytometry. Stained bacterial cells were placed in optically clear flat-bottom 96-well plates, and observations were conducted at 60× magnification. Cell length measurements were obtained through automated image analysis using MetaXpress 6 software.

Chain of PBP B (B1MP31 entry or part of it): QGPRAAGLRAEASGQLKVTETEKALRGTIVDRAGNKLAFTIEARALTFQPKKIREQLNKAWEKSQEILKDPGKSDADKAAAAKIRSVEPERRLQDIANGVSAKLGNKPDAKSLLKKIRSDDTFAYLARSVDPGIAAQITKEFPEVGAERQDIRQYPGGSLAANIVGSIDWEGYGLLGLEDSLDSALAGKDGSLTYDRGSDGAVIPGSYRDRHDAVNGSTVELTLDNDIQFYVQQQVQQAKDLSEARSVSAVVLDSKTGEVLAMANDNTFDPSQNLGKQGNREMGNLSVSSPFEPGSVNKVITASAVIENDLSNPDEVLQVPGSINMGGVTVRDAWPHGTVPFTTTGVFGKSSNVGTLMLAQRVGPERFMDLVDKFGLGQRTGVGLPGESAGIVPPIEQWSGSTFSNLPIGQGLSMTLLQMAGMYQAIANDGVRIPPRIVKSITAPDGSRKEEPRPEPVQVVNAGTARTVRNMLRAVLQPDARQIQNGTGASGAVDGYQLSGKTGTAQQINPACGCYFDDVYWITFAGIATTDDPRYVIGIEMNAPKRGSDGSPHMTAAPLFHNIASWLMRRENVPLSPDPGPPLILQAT
T1 sequence (B1MDC3 entry or part of it): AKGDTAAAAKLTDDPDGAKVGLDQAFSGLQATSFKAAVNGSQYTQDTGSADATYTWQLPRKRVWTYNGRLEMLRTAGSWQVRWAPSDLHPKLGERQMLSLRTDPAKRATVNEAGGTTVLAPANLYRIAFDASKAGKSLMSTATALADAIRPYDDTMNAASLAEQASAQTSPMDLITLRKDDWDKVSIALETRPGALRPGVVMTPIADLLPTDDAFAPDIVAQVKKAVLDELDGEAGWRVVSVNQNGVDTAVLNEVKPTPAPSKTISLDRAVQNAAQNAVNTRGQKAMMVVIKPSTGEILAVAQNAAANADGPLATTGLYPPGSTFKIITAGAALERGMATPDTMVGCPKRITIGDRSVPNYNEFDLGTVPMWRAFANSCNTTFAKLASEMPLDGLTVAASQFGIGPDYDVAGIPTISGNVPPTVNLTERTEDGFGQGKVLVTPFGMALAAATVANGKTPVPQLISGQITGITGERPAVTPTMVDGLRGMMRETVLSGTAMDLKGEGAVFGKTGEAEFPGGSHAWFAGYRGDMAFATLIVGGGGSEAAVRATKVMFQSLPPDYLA
Chain of DDC (B1MDJ1 entry or part of it): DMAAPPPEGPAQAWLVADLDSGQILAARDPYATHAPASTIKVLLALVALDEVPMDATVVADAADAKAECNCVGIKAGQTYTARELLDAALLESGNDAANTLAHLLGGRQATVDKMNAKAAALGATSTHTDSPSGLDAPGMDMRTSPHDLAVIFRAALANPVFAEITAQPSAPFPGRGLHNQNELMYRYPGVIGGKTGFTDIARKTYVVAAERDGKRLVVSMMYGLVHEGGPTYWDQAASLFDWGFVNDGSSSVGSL

| SMILES | fCss,avg [1] [mg/L] | Ratio of fCss,avg to Ki,app, PBP B (PBP B) | Ki (PBP B) [µM] | Ratio of fCss,avg to Ki,app, DDC (DDC) | MIC (Mab ATCC 19977 strain) [µg/mL] | MIC, + DUR + SUL (1:1) (Mab ATCC 19977 strain) [µg/mL] | MIC, + AVI (4 mg/L) (Mab ATCC 19977 strain) [µg/mL] | MIC, + DUR + SUL (1 mg/L) (Mab ATCC 19977 strain) [µg/mL] | Binding to PBP-lipo (Bocillin-FL competition) (PBP-lipo [2]) | Ratio of fCss,avg to Ki,app, PBP-lipo (PBP-lipo [3]) | Ki (PBP-lipo [3]) [µM] | Morphological change of Mab cells [4] | Ki (PBP B; nitrocefin at 5 × Km) [µM] | pKi (PBP B) |
| --- | --- | --- | --- | --- | --- | --- | --- | --- | --- | --- | --- | --- | --- | --- |
| C[C@@H](O)[C@H]1C(=O)N2C(C(=O)O)=C(SCCN=CN)C[C@H]12 [Imipenem, imipenem] | 12 | 0.4 (27) | 1.34 | 1.3 (9) | 8 (≈ 26.7 µM) | 2 | 4 | 4 | demonstrated binding to PBP-lipo | 22 | 2 | filamentous shapes with an elongated cell length | – | – |
| C[C@@H](O)[C@H]1C(=O)N2C(C(=O)O)=C(S[C@H]3CC[S@@+]([O-])C3)S[C@H]12 [Sulopenem, sulopenem] | 2 | 0.7 | – | 0.1 | 1 (≈ 2.86 µM) | 0.25 | 0.5 | 1 | demonstrated binding to PBP-lipo | 25 | 0.229 | filamentous shapes with an elongated cell length | 8.3 | – |
| CC1(C)S[C@@H]2[C@H](NC(=O)[C@H](N)c3ccc(O)cc3)C(=O)N2[C@H]1C(=O)O [Amoxicillin, amoxicillin] | 6 | – | – | – | 128 (≈ 350 µM) | 1 | 32 | 1 | demonstrated binding to PBP-lipo | – | 0.274 | does not induce any morphological changes | – | 5.13 |
| C[C@@H](O)[C@H]1C(=O)N2C(C(=O)O)=C(SC3CN(C4=NCCS4)C3)[C@H](C)[C@H]12 [Tebipenem, tebipenem] | 1.7 | 243 | – | 0.01 | 8 (≈ 20.9 µM) | 1 | 2 | 1 | – | 0.05 | 88.7 | – | 0.0183 | – |
| CO/N=C(\C(=O)N[C@@H]1C(=O)N2C(C(=O)O)=C(COC(N)=O)CS[C@H]12)c1ccco1 [Cefuroxime, cefuroxime] | 12 | 3 (4) | 7.07 | 0.05 (240) | 4 (≈ 9.43 µM) | 1 | 4 | 2 | demonstrated binding to PBP-lipo | 0.5 | 51.8 | did not induce noticeable morphological changes | – | – |
| CC1=C[C@@H]2CN(C(=O)N2OS(=O)(=O)O)[C@@H]1C(N)=O [Durlobactam, durlobactam] | 16 | 1 | – | 1.6 | – | – | – | – | demonstrated binding to PBP-lipo | 133 | 0.361 | filamentous shapes with an elongated cell length | 57.7 | – |
| NC(=O)[C@@H]1CC[C@@H]2CN1C(=O)N2OS(=O)(=O)O [Avibactam, avibactam] | 5 | 0.6 | – | 0.1 | > 128 | – | – | – | demonstrated binding to PBP-lipo | 1 | 18.9 | did not induce noticeable morphological changes | 33.9 | – |
